We go through three compounds from patent US20080261207A1, “Method of Measuring Cancer Susceptibility” (priority 2004, published 2008).

The experiment concerns p21 mRNA. Nature of the experiment: Radiation-induced p21 mRNA induction in heparinized whole blood incubated with dietary supplements (FIG. 5). It counts as cell-based, human. The note with it: heparinized whole blood of a single individual, EGC 10 μM, rLA 10 μg/mL, Cur 1 μM; for radiation-induced p21 expression: 1 hour at 37° C. with supplement, 1 Gy ionizing radiation, another 2 hours at 37° C.; for p21 levels on control blood (no radiation) / background p21 levels: incubated with supplement at 37° C., without radiation. The method, then:
The protocol for measuring mRNA levels employed in this example was as follows. The assay procedure consists of 3 major steps: 1) leukocyte isolation and lysis on filterplates, 2) mRNA isolation, reverse primer hybridization, and cDNA synthesis in oligo(dT)-immobilized microplates, and 3) real time quantitative PCR. In brief, filterplates were placed over collection plates, and 150 μL 5 mmol/L Tris, pH 7.4, was applied to wet the filter membranes. Following centrifugation at 120×g for 1 min at 4° C. to remove solution from the filterplates, 50 μL of well-mixed blood samples were applied to each well and immediately centrifuged at 120×g for 2 min at 4° C., followed by washing of each well with 300 μL phosphate buffered saline (PBS) once with centrifugation at 2000×g for 5 min at 4° C. Then, 60 μL stock lysis buffer (see below), supplemented with 1% 2-mercaptoethanol (Bio Rad), 0.5 mg/mL proteinase K (Pierce), 0.1 mg/mL salmon sperm DNA (5 Prime Eppendorf/Brinkmann), 0.1 mg/mL E. coli tRNA (Sigma), […] each of specific reverse primers, and 10^7 molecules/mL of synthetic RNA34 as an internal standard, were applied to the filterplates, followed by incubation at 37° C. for 10 min. The filterplates were then placed over oligo(dT)-immobilized microplates (GenePlate, RNAture), and centrifuged at 2000×g for 5 min at 4° C. Following overnight storage at 4° C., the microplates were washed with 100 μL plain lysis buffer 3 times, and then with 150 μL wash buffer (0.5 mol/L NaCl, 10 mmol/L Tris, pH 7.4, 1 mmol/L EDTA) 3 times at 4° C. The cDNA was directly synthesized in each well by adding 30 μL buffer containing 1×RT-buffer (50 mmol/L KCl, 10 mmol/L Tris-HCl, pH 8.3, 5.5 mmol/L MgCl2, no dithiothreitol), 1.25 mmol/L each of dNTP, 4 units rRNasin, and 80 units of MMLV reverse transcriptase (Promega) (without primers), and incubation at 37° C. for 2 hours. The resultant 4 μL cDNA was directly transferred to 384-well PCR plates, to which 5 μL TaqMan universal master mix (Applied Biosystems) and 1 μL oligonucleotide cocktail (15 μmol/L each of forward and reverse primer, and 3-6 μmol/L TaqMan probe) were applied, and PCR was conducted in a PRISM 7900HT (Applied Biosystems), with one cycle of 95° C. for 10 min followed by 45 cycles of 95° C. for 30 sec, 55° C. for 30 sec, and 60° C. for 1 min. Each gene was amplified in separate wells. The cycle threshold (Ct), which was the cycle of PCR to generate certain amounts of PCR products (fluorescence), was determined using analytical software (SDS, Applied Biosystems). PCR was also conducted directly in the GenePlate using an iCycler (BioRad). […] First, heparinized whole blood was incubated with various dietary supplements at 37° C. for 1 hour (2 tubes for each compound). Then one tube was exposed to 1 Gy of ionizing radiation, then both tubes were incubated for another 2 hours at 37° C. The p21 mRNA was quantitated as described above. […] In FIG. 5, each data point is the mean ±standard deviation of p21 mRNA with ([…]) or without (◯) 1 Gy radiation. […] Data points surrounded by a circle indicate p<0.05.

As for `COc1cc(/C=C/C(=O)CC(=O)/C=C/c2ccc(O)c(OC)c2)ccc1O` [curcumin], the “radiation-induced p21 expression” value was “enhanced” and the “p21 levels on control blood (no radiation) / background p21 levels” value is “increased”.

`O=C(O[C@@H]1Cc2c(O)cc(O)cc2O[C@@H]1c1cc(O)c(O)c(O)c1)c1cc(O)c(O)c(O)c1` [epigallocatechin gallate]: the “radiation-induced p21 expression” value is reported as “significantly enhanced” and the “p21 levels on control blood (no radiation) / background p21 levels” value is listed as “did not show any changes”.

For the compound `CCCCC/C=C\C/C=C\C/C=C\CCCCC(=O)O` [γ-linoleic acid], the “radiation-induced p21 expression” value is listed as “enhanced” and the “p21 levels on control blood (no radiation) / background p21 levels” value was “increased”.
